Measured values reported in patent US5707963A, “Methods of using growth inhibitory peptides” (Health Research, Incorporated, priority 1996, dated 1998).

B1: full-length transformed AFP molecule: full-length alpha-fetoprotein transformed by incubation with estradiol (E2) (protein, UniProt P02771 19-609, looked up)
Alpha-fetoprotein: RTLHRNEYGIASILDSYQCTAEISLADLATIFFAQFVQEATYKEVSKMVKDALTAIEKPTGDEQSSGCLENQLPAFLEELCHEKEILEKYGHSDCCSQSEEGRHNCFLAHKKPTPASIPLFQVPEPVTSCEAYEEDRETFMNKFIYEIARRHPFLYAPTILLWAARYDKIIPSCCKAENAVECFQTKAATVTKELRESSLLNQHACAVMKNFGTRTFQAITVTKLSQKFTKVNFTEIQKLVLDVAHVHEHCCRGDVLDCLQDGEKIMSYICSQQDTLSNKITECCKLTTLERGQCIIHAENDEKPEGLSPNLNRFLGDRDFNQFSSGEKNIFLASFVHEYSRRHPQLAVSVILRVAKGYQELLEKCFQTENPLECQDKGEEELQKYIQESQALAKRSCGLFQKLGEYYLQNAFLVAYTKKAPQLTSSELMAITRKMAATAATCCQLSEDKLLACGEGAADIIIGHLCIRHEMTPVNPGVGQCCTSSYANRRPCFSSLVVDETYVPPAFSDDKFIFHKDLCQAQGVALQTMKQEFLINLVKQKPQITEEQLEAVIADFSGLLEKCCQGQEQEVCFAEEGQKLISKTRAALGV
modifications: transformed by estradiol incubation

Assays:
[1] = test system: estrogen-stimulated growth of mouse uterus; type: in vivo; settings: immature mouse uterus, 10-100 ng per mouse, peak assay point of the dilution series
Protocol: An in vivo wet weight bioassay measuring inhibition of estrogen-stimulated growth of uteri was performed. The procedure of Mizejewski et al. was used for the wet weight assay (see Mizejewski, G. J. et al. (1983); Mizejewski, G. J. et al. (1986); Mizejewski, G. J. and A. S. Warner (1989); Mizejewski, G. J. et al., "Separation of the Estrogen-Activated Growth-Regulatory Forms of Alpha-Fetoprotein in Mouse Amniotic Fluid," Biol of Reprod 42:887-898 (1990); and Allen, S.H.G. et al. (1993)).
Briefly, the synthesized powdered peptide was reconstituted in saline (1 mg/ml) to form a stock solution of the GIP. The stock solution was appropriately diluted to provide dosages of 25 to 100 ng/mouse. 0.1 ml of the appropriately diluted GIP was injected intraperitoneally into 15-18 day old Nya:NYLAR female mice. Control mice were injected with saline or other peptides, including a peptide encoded by a portion of the amino acid sequence of albumin and a random 34 amino acid peptide. 1 hour after this first injection, an estrogen challenge of 0.5 micrograms of E2 in 0.1 ml saline was given to determine the change in uterine responsiveness to E2 resulting from exposure to the first injection. 23 hours after the second injection, uteri were dissected, trimmed free of connective tissue and immediately weighed. The uterine wet weights were normalized to mouse body weight (mg uterine weight/g of body weight) to compensate for differences in body weight among litters of the same age. Percent inhibition of estrogen-stimulated uterine growth was calculated as described by Mizejewski et al. (1983).
Two separate bioassays for inhibition of estrogen-stimulated growth were used. The first was an in vivo bioassay measuring an estrogen-induced increase in wet weight of the immature mouse uterus in a 24-hour determination. Dosages of peptide fragments ranged from 10 to 100 ng, and the %inhibition given in Table 6 represents the peak assay point of the dilution series.

[2] = transformed human AFP preparations
[3] = test system: estrogen-stimulated growth of mouse uterus; settings: full-length transformed AFP, see references cited; cited from earlier work

| Molecule | Percent Growth Inhibition [1] | time activity is retained [2] | inhibition of estrogen-stimulated growth [3] |
| --- | --- | --- | --- |
| SEQ ID NO:5: 5' fragment generated by cutting the 34 amino acid peptide SEQ ID NO:1 with trypsin (HEMTPVNPGV) | 38% | – | – |
| SEQ ID NO:7: 3' fragment generated by cutting SEQ ID NO:1 with trypsin; 5 amino acids in length (LSEDK) | no detectable growth inhibition | – | – |
| B1 | – | one week or less | 20-40% |
